From patent US20220233238A1, “DELIVERY CATHETER AND METHOD OF DISEASE TREATMENT” (Neurotronic, Inc., priority 2019, published 2022)
Where “and” joins values, the source holds several entries; their conditions need not be identical. Equal values may be shown once. Entries after “also recorded” stand apart in the source; their conditions may differ. Read-outs that look alike come from different tables or passages of the source.

Experiments:
[1] = tested on: hepatic, splenic, celiac, right renal and left renal arteries; details: patient B; for fasting glucose: base 186 mg/dL
Procedure: (§1) In another example, multiple arteries/tissues were treated for hypertension. […] Patient B had 5 years of hypertension history. Patient B went through the same procedure and ablation treatment method as patient A in Example 3.
In another example, multiple arteries/tissues were treated for diabetes.

[2] = tested on: hepatic artery; assay: Pre-clinical trial: hepatic artery ethanol ablation (hepatic denervation) with triple-needle single-balloon catheter
[3] = tested on: hepatic, splenic, celiac, right renal and left renal arteries; details: patient B; for Body weight: base 83 kg
Procedure: as §1
In another example, multiple arteries/tissues were treated for managing body weight. The patient B with 3 years of obesity history had their body weight improved after the ablation procedure. The treated multiple arteries were hepatic, splenic, celiac, right renal and left renal arteries.

[4] = tested on: hepatic, splenic, celiac, right renal and left renal arteries; details: patient B; for average 24-hour ambulatory blood pressure, DBP: base 79; for average 24-hour ambulatory blood pressure, SBP: base 136
Procedure: as §1

[5] = tested on: renal arteries, hepatic artery, splenic artery, and the left gastric artery; details: patient A; for Body weight: base 103 kg; for 24-Hour blood pressure, DBP / 24-Hour blood pressure, SBP: average 24-hour ambulatory; for 24-Hour blood pressure, DBP: base 109; for 24-Hour blood pressure, SBP: base 164; for High-density lipoprotein (HDL): base 39 mg/dL; for Triglycerides: base 336 mg/dL
Procedure: The targeted arteries for their treatment were renal arteries, hepatic artery, splenic artery, and the left gastric artery.
In the procedure, modest sedation per the institution's standard practice was used and no general anesthesia was used. The arteries were engaged using a 7F guiding catheter, introduced via the femoral artery. Angiography was performed of the arteries before intervention. All four arteries were treated in the same procedure. The treatment started at upper body arteries in the order of splenic, hepatic, left gastric, left renal, and right renal arteries. After the initial angiography survey of the hepatic artery, splenic artery and left gastric artery, the rapid-exchange version of the triple-needle single-balloon catheter was advanced through the guiding catheter and into the artery over a guiding wire.
The maximum catheter needle span diameter was about 12 mm, and the span diameter was adjustable per artery diameter. […] The function of this balloon was to center the distal head/shaft without over-stretching the artery.
The infusion time was within 10 seconds for each application. […] The treatment steps were repeated for the second treatment (balloon inflation, needle deployment, infusion ablation, needle withdrawal, balloon deflation). The total volume of the alcohol used in the two treatments was 1.2 mL for the splenic artery.
The same treatment method and procedure steps as in the treatment of the splenic artery were used for common hepatic artery ablation. The catheter was replaced with a fresh catheter for the common hepatic artery ablation. There were two treatments total at about 15 mm apart of each other (between the treatment sites) for the common hepatic artery with the same ablation dosage of 0.6 mL. The total volume of the alcohol used for the hepatic artery ablation was 1.2 mL. After the hepatic treatment, the catheter was placed into the left gastric artery for next ablation treatment. Again, the same treatment method and procedure was used, with the exception that one ablation treatment of 0.6 mL of the alcohol was applied for the left gastric artery. Angiography was performed after the withdrawal of the triple-needle balloon delivery catheter.
After the ablation treatments of the three arteries above, angiography was performed of the renal arteries before intervention. The suitable branches and main arteries were assessed and predetermined for treatment. After the assessment, the triple-needle balloon delivery catheter was advanced through the guiding catheter and over the guiding wire into the branch artery of left renal arteries and stopped just beyond the bifurcated area.

[6] = tested on: renal artery; assay: Pre-clinical trial: renal artery ethanol ablation (renal denervation) with triple-needle single-balloon catheter
[7] = maintained at 3 months follow-up

CCO [ethanol]
fasting glucose level change from baseline ([1]; 1-month follow-up): −50%
fasting glucose ([1]; 1 mo): 92 mg/dL
fasting glucose level change from baseline ([1]; 2 weeks follow-up): −32%
fasting glucose ([1]; 2 wks): 127 mg/dL
HbA1c improvement from the baseline, absolute value ([1]; 3 months after the procedure): −2.1%
HbA1c percent reduction ([1]; 3 months after the procedure, relative to baseline): ~26%
fasting glucose level reduction from the baseline ([1]; 3 months follow-up): −41%
fasting glucose ([1]; 3 mos): 110 mg/dL
Blood sugar HbA1c ([1]; 3 mos, base 8.1%): 6.0%
arterial spasms (hepatic angiograms) ([2]; during and after the infusion treatment, both animals): no significant arterial spasms
average liver NE concentration reduction ([2]; one value per animal (two animals), two weeks after treatment, vs untreated control animal, 2 x 0.6 mL): 85% and 94%
gross necropsy ([2]; two weeks after the treatment): all treatment related organs were normal
Body weight ([3]; 1 mo): 79.9 kg
initial body weight loss from the baseline ([3]; 2 weeks follow-up): −4.5%
Body weight ([3]; 2 wks): 79.3 kg
Body weight ([3]; 3 mos): 79.1 kg
average 24-hour ambulatory blood pressure, DBP ([4]; 1 mo): 61 mmHg
average 24-hour ambulatory blood pressure, SBP ([4]; 1 mo): 107 mmHg
diastolic (DBP) blood pressure drop from the baseline ([4]; 1 month follow-up): ~23%
systolic (SBP) blood pressure drop from the baseline ([4]; 1 month follow-up): about 21%
average 24-hour ambulatory blood pressure, DBP ([4]; 3-mo): 66 mmHg
average 24-hour ambulatory blood pressure, SBP ([4]; 3-mo): 115 mmHg
DBP percentage drop from baseline level ([4]; 3 month follow-up): about 15%
SBP percentage drop from baseline level ([4]; 3 month follow-up): about 15%
Body weight ([5]; 1 mo post-procedure): 95.6 kg
24-Hour blood pressure, DBP ([5]; 1 mo): 87 mmHg
24-Hour blood pressure, SBP ([5]; 1 mo): 140 mmHg
High-density lipoprotein (HDL) ([5]; 1 mo): 43 mg/dL
Triglycerides ([5]; 1 mo): 139 mg/dL
Body weight ([5]; 2 wk post-procedure): 96.2 kg
High-density lipoprotein (HDL) ([5]; 2 wks): 42 mg/dL
Triglycerides ([5]; 2 wks): 160 mg/dL
TG/HDL ratio ([5]; 3-month follow-up, 8.6 at baseline, normal range <5): 4.2
24-Hour blood pressure, DBP ([5]; 3 mo): 84 mmHg
24-Hour blood pressure, SBP ([5]; 3 mo): 141 mmHg
HbA1c value change vs baseline ([5]; 3 months follow-up, absolute change): ~−1%
Body weight ([5]; 3 mos post-procedure): 96.2 kg
High-density lipoprotein (HDL) ([5]; 3 mos): 40 mg/dL
Triglycerides ([5]; 3 mos): 167 mg/dL
Blood sugar level, HbA1c ([5]; 3 mos, base 7.5%): 6.6%
weight loss, reduction ([5]; since week 3 (2 wk time point), maintained at 3 months): about 7%
triglyceride level reduction ([5]; two weeks follow-up): about 50%
diastolic (DBP) blood pressure drop from the baseline [5, 7]: ~20%
systolic (SBP) blood pressure drop from the baseline [5, 7]: about 14%
histopathologic evaluation of renal arteries and surrounding tissues ([6]; after ethanol ablation, FIG. 11): renal nerve injury; also recorded: severed renal nerves necrosis
renal arterial spasms (post-ablation renal angiograms) ([6]; during and after the infusion treatment): no significant renal arterial spasms
average renal tissue NE content, treated side ([6]; porcine renal cortex, two weeks after treatment, HPLC, control side 87 ng/g): 4.9 ng/g
reduction in renal norepinephrine concentration ([6]; porcine, two weeks after treatment, treated side vs contralateral untreated renal artery side (control 87 ng/g), total 1.8 mL): 94%
gross necropsy ([6]; two weeks after treatment): all treatment related organs were normal
